Measured values reported in patent US9957264B2 (Merck Sharp & Dohme Corp., priority 2013, dated 2018).

Experiments:
[1] = target: JAK1 (recombinant purified GST-tagged catalytic domain) (Homo sapiens (Human), UniProt P23458); test: Jak Biochemical HTRF Assay (JAK1); conditions: [ATP] 31.8 μM
Procedure, shortened: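 HTRF kinase format: compounds pre-equilibrated with recombinant GST-tagged JAK1 or JAK2 catalytic domain, then ATP started a 120 min room-temperature reaction on a common peptide substrate. Phosphopeptide detected via Eu-pY20/streptavidin-Dylight 650 after EDTA quench; percent inhibition versus log concentration fitted (4-parameter) to give IC50.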

[2] = target: JAK2 (recombinant purified GST-tagged catalytic domain) (Homo sapiens (Human), UniProt O60674); test: Jak Biochemical HTRF Assay (JAK2); conditions: [ATP] 8.5 μM
Sequence of JAK2 (recombinant purified GST-tagged catalytic domain) (O60674 849-1124): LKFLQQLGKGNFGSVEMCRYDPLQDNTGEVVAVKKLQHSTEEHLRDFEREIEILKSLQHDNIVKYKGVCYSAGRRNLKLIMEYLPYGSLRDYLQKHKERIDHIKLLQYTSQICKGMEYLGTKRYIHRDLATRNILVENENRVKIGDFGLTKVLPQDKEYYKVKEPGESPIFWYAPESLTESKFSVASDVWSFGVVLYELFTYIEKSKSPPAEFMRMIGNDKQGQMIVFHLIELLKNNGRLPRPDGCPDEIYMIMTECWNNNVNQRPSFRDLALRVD

Sequence of JAK1 (recombinant purified GST-tagged catalytic domain) (P23458 875-1153): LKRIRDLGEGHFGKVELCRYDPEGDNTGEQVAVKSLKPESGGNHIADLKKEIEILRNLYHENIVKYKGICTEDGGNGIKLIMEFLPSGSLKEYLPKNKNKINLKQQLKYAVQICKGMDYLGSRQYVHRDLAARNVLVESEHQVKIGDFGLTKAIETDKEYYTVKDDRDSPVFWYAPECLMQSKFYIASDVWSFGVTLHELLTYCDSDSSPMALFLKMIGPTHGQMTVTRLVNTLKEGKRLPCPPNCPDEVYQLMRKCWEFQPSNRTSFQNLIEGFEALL

SMILES | IC50 [1] [nM] | IC50 [2] [nM]
CC(C)(C)N[C@H](c1ccc(Nc2nn([C@]3(CC#N)CCOC[C@@H]3F)c3cc[nH]c(=O)c23)cc1)C(F)(F)F (single isomer, unassigned) [Example 5-269, 2-((3R,4R or 3S,4S)-4-(3-((4-((R or S)-1-(tert-butylamino)-2,2,2-trifluoroethyl)phenyl)amino)-4-oxo-4,5-dihydro-1H-pyrazolo[4,3-c]pyridin-1-yl)-3-fluorotetrahydro-2H-pyran-4-yl)acetonitrile] | 0.11 | 0.09
CC(C)(C)N[C@@H](c1ccc(Nc2nn([C@]3(CC#N)CCOC[C@@H]3F)c3cc[nH]c(=O)c23)cc1)C(F)(F)F (single isomer, unassigned) [Example 5-270, 2-((3R,4R or 3S,4S)-4-(3-((4-((S or R)-1-(tert-butylamino)-2,2,2-trifluoroethyl)phenyl)amino)-4-oxo-4,5-dihydro-1H-pyrazolo[4,3-c]pyridin-1-yl)-3-fluorotetrahydro-2H-pyran-4-yl)acetonitrile] | 0.12 | 0.13
N#CC[C@@]1(n2nc(Nc3ccc4c(c3)CN(C3CCN(CC(F)(F)F)CC3)S4(=O)=O)c3c(=O)[nH]ccc32)CCOC[C@@H]1F (single isomer, unassigned) [Example 5-277, 2-((3R,4R or 3S,4S)-4-(3-((1,1-dioxido-2-(1-(2,2,2-trifluoroethyl)piperidin-4-yl)-2,3-dihydrobenzo[d]isothiazol-5-yl)amino)-4-oxo-4,5-dihydro-1H-pyrazolo[4,3-c]pyridin-1-yl)-3-fluorotetrahydro-2H-pyran-4-yl)acetonitrile] | 0.05 | 0.05
N#CC[C@]1(n2nc(Nc3ccc4c(c3)CN(C3CCN(CC(F)(F)F)CC3)S4(=O)=O)c3c(=O)[nH]ccc32)CCOC[C@H]1F (single isomer, unassigned) [Example 5-278, 2-((3S,4S or 3R,4R)-4-(3-((1,1-dioxido-2-(1-(2,2,2-trifluoroethyl)piperidin-4-yl)-2,3-dihydrobenzo[d]isothiazol-5-yl)amino)-4-oxo-4,5-dihydro-1H-pyrazolo[4,3-c]pyridin-1-yl)-3-fluorotetrahydro-2H-pyran-4-yl)acetonitrile] | 0.2 | 2.65
CC(C)(C)OC(=O)N1CCC(CC#N)(n2nc(Nc3ccc(C4(C(F)(F)F)CCN(Cc5ccccc5)C4)cc3)c3c(=O)[nH]ccc32)CC1 (single isomer, unassigned) [Example 5-280, (S or R) tert-butyl 4-(3-((4-(1-benzyl-3-(trifluoromethyl)pyrrolidin-3-yl)phenyl)amino)-4-oxo-4,5-dihydro-1H-pyrazolo[4,3-c]pyridin-1-yl)-4-(cyanomethyl)piperidine-1-carboxylate] | 7.33 | 9.56
CC(C)(C)OC(=O)N1CCC(CC#N)(n2nc(Nc3ccc(C4(C(F)(F)F)CCN(Cc5ccccc5)C4)cc3)c3c(=O)[nH]ccc32)CC1 (single isomer, unassigned) [Example 5-281, (S or R) tert-butyl 4-(3-((4-(1-benzyl-3-(trifluoromethyl)pyrrolidin-3-yl)phenyl)amino)-4-oxo-4,5-dihydro-1H-pyrazolo[4,3-c]pyridin-1-yl)-4-(cyanomethyl)piperidine-1-carboxylate] | 7.9 | 10
CC(C)(C)OC(=O)N1CCC(CC#N)(n2nc(Nc3ccc(C4(C(F)(F)F)CCNC4)cc3)c3c(=O)[nH]ccc32)CC1 (single isomer, unassigned) [Example 5-282, (S or R) tert-butyl 4-(cyanomethyl)-4-(4-oxo-3-((4-(3-(trifluoromethyl)pyrrolidin-3-yl)phenyl)amino)-4,5-dihydro-1H-pyrazolo[4,3-c]pyridin-1-yl)piperidine-1-carboxylate] | 0.33 | 0.49
CC(C)(C)OC(=O)N1CCC(CC#N)(n2nc(Nc3ccc(C4(C(F)(F)F)CCNC4)cc3)c3c(=O)[nH]ccc32)CC1 (single isomer, unassigned) [Example 5-283, (S or R) tert-butyl 4-(cyanomethyl)-4-(4-oxo-3-((4-(3-(trifluoromethyl)pyrrolidin-3-yl)phenyl)amino)-4,5-dihydro-1H-pyrazolo[4,3-c]pyridin-1-yl)piperidine-1-carboxylate] | 0.33 | 0.43
CC(C)(C)OC(=O)[C@@H]1CC[C@@](CC#N)(n2nc(Nc3ccc(C4(C(F)(F)F)CCNC4)cc3)c3c(=O)[nH]ccc32)CO1 (single isomer, unassigned) [Example 5-284, (2S,5S)-tert-butyl 5-(cyanomethyl)-5-(4-oxo-3-((4-((R or S)-3-(trifluoromethyl)pyrrolidin-3-yl)phenyl)amino)-4,5-dihydro-1H-pyrazolo[4,3-c]pyridin-1-yl)tetrahydro-2H-pyran-2-carboxylate] | 0.15 | 0.24
CC(C)(C)OC(=O)[C@@H]1CC[C@@](CC#N)(n2nc(Nc3ccc(C4(C(F)(F)F)CCNC4)cc3)c3c(=O)[nH]ccc32)CO1 (single isomer, unassigned) [Example 5-285, (2S,5S)-tert-butyl 5-(cyanomethyl)-5-(4-oxo-3-((4-((R or S)-3-(trifluoromethyl)pyrrolidin-3-yl)phenyl)amino)-4,5-dihydro-1H-pyrazolo[4,3-c]pyridin-1-yl)tetrahydro-2H-pyran-2-carboxylate] | 0.15 | 0.21
CC(C)(C)OC(=O)[C@@H]1CC[C@@](CC#N)(n2nc(Nc3ccc(C4(C(F)(F)F)CCCCN4)cc3)c3c(=O)[nH]ccc32)CO1 (single isomer, unassigned) [Example 5-286, (2S,5S)-tert-butyl 5-(cyanomethyl)-5-(4-oxo-3-((4-((S or R)-2-(trifluoromethyl)piperidin-2-yl)phenyl)amino)-4,5-dihydro-1H-pyrazolo[4,3-c]pyridin-1-yl)tetrahydro-2H-pyran-2-carboxylate] | 0.24 | 0.33
CC(C)(C)OC(=O)[C@@H]1CC[C@@](CC#N)(n2nc(Nc3ccc(C4(C(F)(F)F)CCCCN4)cc3)c3c(=O)[nH]ccc32)CO1 (single isomer, unassigned) [Example 5-287, (2S,5S)-tert-butyl 5-(cyanomethyl)-5-(4-oxo-3-((4-((S or R)-2-(trifluoromethyl)piperidin-2-yl)phenyl)amino)-4,5-dihydro-1H-pyrazolo[4,3-c]pyridin-1-yl)tetrahydro-2H-pyran-2-carboxylate] | 0.25 | 0.35
N#CCC1(n2nc(Nc3ccc([C@@H](O)C(F)(F)F)cc3)c3c(=O)[nH]ccc32)CCN(c2cc(C(F)(F)F)ccn2)CC1 (single isomer, unassigned) [Example 16-2, (R or S)-2-(4-(4-oxo-3-(4-(2,2,2-trifluoro-1-hydroxyethyl)phenylamino)-4,5-dihydropyrazolo[4,3-c]pyridin-1-yl)-1-(4-(trifluoromethyl)pyridin-2-yl)piperidin-4-yl)acetonitrile] | 1.14 | 4.81
N#CCC1(n2nc(Nc3ccc([C@H](O)C(F)(F)F)cc3)c3c(=O)[nH]ccc32)CCN(c2cc(C(F)(F)F)ccn2)CC1 (single isomer, unassigned) [Example 16-3, (R or S)-2-(4-(4-Oxo-3-(4-(2,2,2-trifluoro-1-hydroxyethyl)phenylamino)-4,5-dihydropyrazolo[4,3-c]pyridin-1-yl)-1-(4-(trifluoromethyl)pyridin-2-yl)piperidin-4-yl)acetonitrile] | 1.15 | 3.82
